From patent US10254456B2, “Polarizing plate composition, polarizing plate protective film, polarizer, polarizing plate, and liquid crystal display device” (FUJIFILM Corporation, priority 2014, dated 2019) come the findings set out here.

The data set in a line: Solubility of additive in water. As to conditions: 100 ml of pure water at 25° C. The format is physicochemical. How it is done:
The amount of the additive dissolving in 100 ml of pure water at 25° C. was measured and evaluated according to the following criteria.

Structures are written as SMILES.

For the molecule `CC1(C)CC(=O)C(Cc2ccccc2S(=O)(=O)O)C(=O)C1` [3-3], the Solubility in water entry is “A+ (The amount of the additive dissolving in 100 ml of pure water was equal to or greater than 5 g.)”.
Next, `O=C1NNC(=O)C1c1ccccc1` [2-1]: “A (The amount of the additive dissolving in 100 ml of pure water was equal to or greater than 3 g and less than 5 g.)”; `O=CC1C(=O)N(c2ccccc2)N(c2ccc(S(=O)(=O)[O-])cc2)C1=O.[Na+]` (stereo not drawn) [5-5]: “A+ (The amount of the additive dissolving in 100 ml of pure water was equal to or greater than 5 g.)”.
As to `O=C1NC(=O)N(Cc2ccccc2)C(=O)C1c1ccccc1` (stereo not drawn) [Organic acid 1, reference compound], the Solubility in water entry is on record as “C (The amount of the additive dissolving in 100 ml of pure water was less than 1 g.)”.
With `O=C1c2ccccc2C(=O)C1Cc1ccccc1S(=O)(=O)O` [3-4], the Solubility in water result was “A+ (The amount of the additive dissolving in 100 ml of pure water was equal to or greater than 5 g.)”.
`[Cl-].[Cl-].[Zn+2]` [ZnCl2, reference compound]: the Solubility in water entry is listed as “A+ (The amount of the additive dissolving in 100 ml of pure water was equal to or greater than 5 g.)”.
Then `Nc1c(F)c(F)c(C(=O)O)c(F)c1F` [Organic acid 2, reference compound], with “A (The amount of the additive dissolving in 100 ml of pure water was equal to or greater than 3 g and less than 5 g.)”.
Next, `O=C1C(Cc2ccc(S(=O)(=O)[O-])cc2S(=O)(=O)O)C(=O)N2CCCCN12.[Na+]` [3-9]: “A+ (The amount of the additive dissolving in 100 ml of pure water was equal to or greater than 5 g.)”; `O=Cc1ccc(CC2C(=O)N(c3ccccc3)N(c3ccc(S(=O)(=O)[O-])cc3)C2=O)cc1.[Na+]` (stereo not drawn) [5-1]: “A+ (The amount of the additive dissolving in 100 ml of pure water was equal to or greater than 5 g.)”.
Then `O=C1Nc2ccccc2NC(=O)C1Cc1ccc(S(=O)(=O)[O-])cc1S(=O)(=O)O.[Na+]` [3-8], with “A+ (The amount of the additive dissolving in 100 ml of pure water was equal to or greater than 5 g.)”.
As to `O=C1CN(c2ccccc2)C(=O)C1Cc1ccccc1S(=O)(=O)O` (stereo not drawn) [3-10], the Solubility in water result is listed as “A+ (The amount of the additive dissolving in 100 ml of pure water was equal to or greater than 5 g.)”.
Next, `CN1C(=O)C(Cc2ccccc2S(=O)(=O)[O-])C(=O)c2ccccc21.[Na+]` (stereo not drawn) [3-7]: “A+ (The amount of the additive dissolving in 100 ml of pure water was equal to or greater than 5 g.)”.
Next, `O=C1C(Cc2ccccc2S(=O)(=O)[O-])C(=O)N(c2ccccc2)N1c1ccccc1.[Na+]` [3-6]: “A+ (The amount of the additive dissolving in 100 ml of pure water was equal to or greater than 5 g.)”; `CC(=O)C(Cc1ccccc1S(=O)(=O)[O-])C(=O)c1ccccc1.[Na+]` (stereo not drawn) [3-2]: “A+ (The amount of the additive dissolving in 100 ml of pure water was equal to or greater than 5 g.)”.
Next, `CC(C)C1C(=O)NNC1=O` [2-3]: “A (The amount of the additive dissolving in 100 ml of pure water was equal to or greater than 3 g and less than 5 g.)”.
